Source: US11001591B2, “TRAF 6 inhibitors” (HELMHOLTZ ZENTRUM MUENCHEN—DEUTSCHES FORSCHUNGSZENTRUM FÜR …, priority 2016, dated 2021)
“Also recorded” adds a separate entry of the source.

Target: T1, TRAF6-UBC13 interaction (Homo sapiens, UniProt Q9Y4K3)
T1 construct: RING-Zincfinger1 (RZ1) domain (residues 50-159) of TRAF6 wildtype; made in house; host or cells: E. coli BL21 codon plus RIPL
T1 sequence (Q9Y4K3 50-159): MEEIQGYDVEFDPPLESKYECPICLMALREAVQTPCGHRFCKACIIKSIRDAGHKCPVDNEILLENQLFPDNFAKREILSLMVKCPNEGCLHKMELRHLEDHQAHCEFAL
Experiment: ALPHAScreen TRAF6WTStrepII-Ubc13FH interaction assay
Format: binding
Details: inhibition of TRAF6-UBC13 interaction
Source text: In order to identify small molecules that specifically target the RZ1 domain of TRAF6 and thereby prevent its binding to Ubc13, the ALPHAScreen technology (PerkinElmer) was chosen to detect TRAF6WTStrepII-Ubc13FH interaction in High-Throughput-Screenings as well as Structure Activity Relationship (SAR) analysis.
For performance of an automated ALPHAScreen assay, all following components were pre-diluted in ALPHAScreen buffer (1×PBS, 0.5% BSA, 0.01% Tween-20). First, the TRAF6 protein (end concentration 100 nM, 30 μL volume) was added to 384-well-opti-plates involving the MultiFlo dispensing system (BioTek) followed by transfer of the compounds via the Sciclone G3 transfer station (PerkinElmer). After addition of Ubc13FH (end concentration 75 nM, 10 μL volume) with the MultiFlo system and incubation for one hour at room temperature, both beads (Strep-Tactin Alpha Donor beads and Nickel-Chelate acceptor beads; end concentrations 4 μg each, 10 μL volume each) were mixed and added using the MultiFlo system in subdued light. Read-out of the plates occurred after another hour of incubation at room temperature. Statistical parameters including the coefficient of variation, Z′ factor and signal window were calculated to determine the quality of the HTS campaign. To evaluate the efficacy of the compounds, ALPHAScreen units of compound-treated samples were referred to DMSO control treated samples. Thereby, the TRAF6D57K mutant served as the control for minimum signal and was included on every plate of the screening. Compounds that inhibited TRAF6WTStrepII-Ubc13FH by more than 25% were considered as actives. After elimination of ALPHAScreen frequent hitter compounds and His-tag frequent hitters (Schorpp, K., I. Rothenaigner, E. Salmina, et al., Identification of Small-Molecule Frequent Hitters from AlphaScreen High-Throughput Screens. J Biomol Screen, 2014. 19(5): p. 715-26), 178 compounds were defined as primary hits and were subsequently tested in five-point serial dilution assays (2.5-40 μM) in TRAF6WTStrepII-Ubc13FH ALPHAScreen experiments. Only compounds with dose-dependent effects on TRAF6WTStrepII-Ubc13FH (n=27) were taken for further research. For analog testing, all compounds were analyzed in ten-point titration (0.2-100 μM) in TRAF6WTStrepII-Ubc13FH ALPHAScreen experiments. In parallel, the compounds were tested in the ALPHAScreen TruHits Kit (PerkinElmer) to rule out unspecific interference with the ALPHAScreen technology.

Row | Structure (SMILES) | IC50
1 | Cc1nn(-c2ccc3nnc(C)n3n2)c(C)c1CCC(=O)NCCCc1ccccc1 [Compound 15, 3-(3,5-dimethyl-1-(3-methyl-[1,2,4]triazolo[4,3-b]pyridazin-6-yl)-1H-pyrazol-4-yl)-N-(3-phenylpropyl)propanamide] | ≤ 30 µM
2 | Cc1nn(-c2ccc3nnc(C)n3n2)c(C)c1CCC(=O)NCc1ccc(Cl)cc1 [Compound 18, N-(4-chlorobenzyl)-3-(3,5-dimethyl-1-(3-methyl-[1,2,4]triazolo[4,3-b]pyridazin-6-yl)-1H-pyrazol-4-yl)propanamide] | ≤ 30 µM
3 | Cc1nn(-c2ccc3nnc(C)n3n2)c(C)c1CCC(=O)NCCc1c[nH]c2ccccc12 [Compound 20, N-(2-(1H-indol-3-yl)ethyl)-3-(3,5-dimethyl-1-(3-methyl-[1,2,4]triazolo[4,3-b]pyridazin-6-yl)-1H-pyrazol-4-yl)propanamide] | ≤ 30 µM
4 | COc1cccc(N2CCN(C(=O)CCc3c(C)nn(-c4ccc5nnc(C)n5n4)c3C)CC2)c1 [Compound 61, 3-(3,5-dimethyl-1-(3-methyl-[1,2,4]triazolo[4,3-b]pyridazin-6-yl)-1H-pyrazol-4-yl)-1-(4-(3-methoxyphenyl)piperazin-1-yl)propan-1-one] | ≤ 3 µM

More lines, now with the values ahead:

Row | IC50 | Structure (SMILES)
5 | ≤ 30 µM | Cc1nn(-c2ccc3nncn3n2)c(C)c1CCC(=O)N1CCC(Cc2ccccc2)CC1 [Compound 16, 3-(1-([1,2,4]triazolo[4,3-b]pyridazin-6-yl)-3,5-dimethyl-1H-pyrazol-4-yl)-1-(4-benzylpiperidin-1-yl)propan-1-one]
6 | ≤ 30 µM | Cc1ccc(C)c(N2CCN(C(=O)CCc3c(C)nn(-c4ccc5nnc(C)n5n4)c3C)CC2)c1 [Compound 17, 3-(3,5-dimethyl-1-(3-methyl-[1,2,4]triazolo[4,3-b]pyridazin-6-yl)-1H-pyrazol-4-yl)-1-(4-(2,5-dimethylphenyl)piperazin-1-yl)propan-1-one]
7 | ≤ 30 µM | Cc1nn(-c2ccc3nnc(C)n3n2)c(C)c1CCC(=O)NCc1cccs1 [Compound 19, 3-(3,5-dimethyl-1-(3-methyl-[1,2,4]triazolo[4,3-b]pyridazin-6-yl)-1H-pyrazol-4-yl)-N-(thiophen-2-ylmethyl)propanamide]
8 | ≤ 30 µM | Cc1nn(-c2ccc3nnc(C)n3n2)c(C)c1CCC(=O)NCc1ccccc1 [Compound 21, N-benzyl-3-(3,5-dimethyl-1-(3-methyl-[1,2,4]triazolo[4,3-b]pyridazin-6-yl)-1H-pyrazol-4-yl)propanamide]

Same assay, conditions: inhibition of TRAF6-UBC13 interaction; read-out: IC50 Alphascreen

Row | Structure (SMILES) | inhibition at 100 µM
9 | Cc1nn(-c2ccc3nncn3n2)c(C)c1CCC(=O)N1CCC(C)CC1 [Compound 24, 3-(1-([1,2,4]triazolo[4,3-b]pyridazin-6-yl)-3,5-dimethyl-1H-pyrazol-4-yl)-1-(4-methylpiperidin-1-yl)propan-1-one] | ≥ 30%
10 | Cc1nn(-c2ccc3nnc(C)n3n2)c(C)c1CCC(=O)NCCSCc1ccco1 [Compound 27, 3-(3,5-dimethyl-1-(3-methyl-[1,2,4]triazolo[4,3-b]pyridazin-6-yl)-1H-pyrazol-4-yl)-N-(2-((furan-2-ylmethyl)thio)ethyl)propanamide] | ≥ 30%

The remaining lines, values ahead:

Row | inhibition at 100 µM | Structure (SMILES)
11 | ≥ 30% | Cc1nn(-c2ccc3nncn3n2)c(C)c1CCC(=O)NCCCc1ccccc1 [Compound 22, 3-(1-([1,2,4]triazolo[4,3-b]pyridazin-6-yl)-3,5-dimethyl-1H-pyrazol-4-yl)-N-(3-phenylpropyl)propanamide]
12 | ≥ 30% | CCN1CCN(C(=O)CCc2c(C)nn(-c3ccc4nnc(C)n4n3)c2C)CC1 [Compound 23, 3-(3,5-dimethyl-1-(3-methyl-[1,2,4]triazolo[4,3-b]pyridazin-6-yl)-1H-pyrazol-4-yl)-1-(4-ethylpiperazin-1-yl)propan-1-one]
13 | ≥ 30% | Cc1nn(-c2ccc3nncn3n2)c(C)c1CCC(=O)N1CCCC1 [Compound 25, 3-(1-([1,2,4]triazolo[4,3-b]pyridazin-6-yl)-3,5-dimethyl-1H-pyrazol-4-yl)-1-(pyrrolidin-1-yl)propan-1-one]
14 | ≥ 30% | Cc1nn(-c2ccc3nnc(C)n3n2)c(C)c1CCC(=O)NCc1ccccc1F [Compound 26, 3-(3,5-dimethyl-1-(3-methyl-[1,2,4]triazolo[4,3-b]pyridazin-6-yl)-1H-pyrazol-4-yl)-N-(2-fluorobenzyl)propanamide]

Target: T2, TRAF6-Ubc13 binding (Homo sapiens, UniProt Q9Y4K3)
T2 construct: RING-Zincfinger1 (RZ1) domain (residues 50-159) of TRAF6 wildtype; expressed in transfected cells; host or cells: HEK 293T
T2 sequence (Q9Y4K3 50-159): T1 sequence (Q9Y4K3 50-159)
Experiment: Co-immunoprecipitation of HA-TRAF6 and endogenous Ubc13 in HEK 293T cells
Format: cell-based
Details: not given
Description: To study the interaction of TRAF6 and Ubc13 in cells, 1×10^6 293T cells were seeded and after 18 hours cells were transfected with lpg pEF-HA empty or pEF-HA-TRAF6 RZ1 plasmid using the X-tremeGENE HP DNA transfection reagent (Roche). 6 hours upon transfection, cells were treated with compound or DMSO. After 42 hours further incubation, cells were harvested in Co-IP lysis buffer and HA-TRAF6 was immunoprecipitated with anti-HA affinity matrix (Roche). Binding of Ubc13 to TRAF6 was examined in Western Blot analysis.

Row | Structure (SMILES) | interaction of endogenous Ubc13 with ectopically expressed HA-TRAF6
15 | Cc1nn(-c2ccc3nnc(C)n3n2)c(C)c1CCC(=O)N1CCN(Cc2ccccc2)CC1 [Compound 28, 1-(4-benzylpiperazin-1-yl)-3-(3,5-dimethyl-1-(3-methyl-[1,2,4]triazolo[4,3-b]pyridazin-6-yl)-1H-pyrazol-4-yl)propan-1-one] | active in cells
16 | COc1cccc(CN2CCN(C(=O)CCc3c(C)nn(-c4ccc5nnc(C)n5n4)c3C)CC2)c1 [Compound 29, 3-(3,5-dimethyl-1-(3-methyl-[1,2,4]triazolo[4,3-b]pyridazin-6-yl)-1H-pyrazol-4-yl)-1-(4-(3-methoxybenzyl)piperazin-1-yl)propan-1-one] | active in cells
17 | Cc1nn(-c2ccc3nnc(C)n3n2)c(C)c1CCC(=O)N1CCN(Cc2ccc(F)cc2)CC1 [Compound 30, 3-(3,5-dimethyl-1-(3-methyl-[1,2,4]triazolo[4,3-b]pyridazin-6-yl)-1H-pyrazol-4-yl)-1-(4-(4-fluorobenzyl)piperazin-1-yl)propan-1-one] | active in cells
18 | Cc1nn(-c2ccc3nnc(C)n3n2)c(C)c1CCC(=O)N1CCC(c2ccccc2)CC1 [Compound 32, 3-(3,5-dimethyl-1-(3-methyl-[1,2,4]triazolo[4,3-b]pyridazin-6-yl)-1H-pyrazol-4-yl)-1-(4-phenylpiperidin-1-yl)propan-1-one] | active in cells
19 | Cc1nn(-c2ccc3nnc(C)n3n2)c(C)c1CCC(=O)N1CCC(Cc2ccccn2)CC1 [Compound 36, 3-(3,5-dimethyl-1-(3-methyl-[1,2,4]triazolo[4,3-b]pyridazin-6-yl)-1H-pyrazol-4-yl)-1-(4-(pyridin-2-ylmethyl)piperidin-1-yl)propan-1-one] | active in cells

Same assay, conditions: listed as HZM06-7

Row | Structure (SMILES) | interaction of endogenous Ubc13 with ectopically expressed HA-TRAF6
20 | Cc1nn(-c2ccc3nnc(C)n3n2)c(C)c1CCC(=O)N1CCC(c2ccccn2)CC1 [Compound 33, 3-(3,5-dimethyl-1-(3-methyl-[1,2,4]triazolo[4,3-b]pyridazin-6-yl)-1H-pyrazol-4-yl)-1-(4-(pyridin-2-yl)piperidin-1-yl)propan-1-one] | active in cells; also recorded: most active analogs

Same assay, conditions: listed as HZM06-8

Row | Structure (SMILES) | interaction of endogenous Ubc13 with ectopically expressed HA-TRAF6
21 | COc1cccc(CC2CCN(C(=O)CCc3c(C)nn(-c4ccc5nnc(C)n5n4)c3C)CC2)c1 [Compound 34, 3-(3,5-dimethyl-1-(3-methyl-[1,2,4]triazolo[4,3-b]pyridazin-6-yl)-1H-pyrazol-4-yl)-1-(4-(3-methoxybenzyl)piperidin-1-yl)propan-1-one] | active in cells; also recorded: most active analogs

Same assay, conditions: listed as HZM06-9

Row | Structure (SMILES) | interaction of endogenous Ubc13 with ectopically expressed HA-TRAF6
22 | Cc1nn(-c2ccc3nnc(C)n3n2)c(C)c1CCC(=O)N1CCC(Cc2ccc(F)cc2)CC1 [Compound 35, 3-(3,5-dimethyl-1-(3-methyl-[1,2,4]triazolo[4,3-b]pyridazin-6-yl)-1H-pyrazol-4-yl)-1-(4-(4-fluorobenzyl)piperidin-1-yl)propan-1-one] | active in cells; also recorded: most active analogs
